Reference: ChEMBL document CHEMBL4414616, “Exhaustive Repertoire of Druggable Cavities at Protein-Protein Interfaces of Known Three-Dimensional Structure” (J Med Chem, 2019)
Activity calls are given as the source filed them. No cut-off for these calls is given here.

Tests used:
Lactobacillus johnsonii [1] = assay: Inhibition of catalytic activity of His6-tagged Lactobacillus johnsonii N6.2 cinnamoyl esterase LJ0536 expressed in Escherichia coli BL21 (DE3) assessed as reduction in hydrolysis of 4-nitrophenyl butyrate in 4-nitrophenol pre-incubated for 2 hrs
Lactobacillus johnsonii [2] = assay: Inhibition of catalytic activity of His6-tagged Lactobacillus johnsonii N6.2 cinnamoyl esterase LJ0536 expressed in Escherichia coli BL21 (DE3) assessed as reduction in hydrolysis of 4-nitrophenyl butyrate in 4-nitrophenol at 400 uM in presence of 2.5 to 20 mM enzyme pre-incubated for 2 hrs
Lactobacillus johnsonii [3] = assay: Non-competive inhibition of catalytic activity of His6-tagged Lactobacillus johnsonii N6.2 cinnamoyl esterase LJ0536 expressed in Escherichia coli BL21 (DE3) assessed as substrate Vmax by measuring hydrolysis of 4-nitrophenyl butyrate in 4-nitrophenol at 400 uM pre-incubated for 2 hrs (reference value: 4.094 umol/min/mg)

CC(C(=O)O)c1ccc(-c2ccccc2)c(F)c1 (stereo not drawn)
inhibition (Lactobacillus johnsonii [1]): Dose-dependent effect | inhibition (Lactobacillus johnsonii [2]): Active | Vmax (Lactobacillus johnsonii [3]): 3.7 µmol/min/mg
